Results: Sander's compilation of Henry's law constants

What was measured:
[1] = Henry solubility constant Hcp at 310 K (mol/(m3 Pa))
[2] = Henry solubility constant Hcp at 298.15 K (mol/(m3 Pa))
[3] = Henry solubility constant Hcp at 293 K (mol/(m3 Pa))
[4] = reference: Järnberg and Johanson (1995)
[5] = reference: McIntosh and Heffron (2000)
[6] = reference: Bissonette et al. (1990)
[7] = reference: Bobadilla et al. (2003)
[8] = reference: Johanson and Dynésius (1988)
[9] = reference: Mackay et al. (1979)
[10] = reference: De Maagd et al. (1998)
[11] = reference: Yurteri et al. (1987)
[12] = reference: Munz and Roberts (1987)
[13] = reference: Tancrède and Yanagisawa (1990)
[14] = reference: Warner et al. (1980)
[15] = reference: Chiang et al. (1998)
[16] = reference: Pearson and McConnell (1975)

Cc1cccc(C)c1C [1,2,3-trimethylbenzene]
Henry solubility constant Hcp at 310 K [1, 4]: 0.0011

Cc1cc(C)cc(C)c1 [1,3,5-trimethylbenzene]
Henry solubility constant Hcp at 310 K [1, 4]: 0.00048 | Henry solubility constant Hcp ([2]; reference: Sanemasa et al. (1981)): 0.0011

Cc1cccc(C)c1 [1,3-dimethylbenzene]
Henry solubility constant Hcp at 310 K [1, 5]: 0.00066 | Henry solubility constant Hcp [2, 6]: 0.0014 | Henry solubility constant Hcp ([2]; reference: Li et al. (2008)): 0.0014 | Henry solubility constant Hcp ([2]; reference: Tsibul’skii et al. (1979)): 0.0018

Cc1ccc(C)cc1 [1,4-dimethylbenzene]
Henry solubility constant Hcp at 310 K [1, 5]: 0.00067 | Henry solubility constant Hcp [2, 6]: 0.0012 | Henry solubility constant Hcp [2, 7]: 0.002 | Henry solubility constant Hcp ([2]; reference: Li et al. (2008)): 0.0014 | Henry solubility constant Hcp ([2]; reference: Lin and Chou (2006)): 0.0016 | Henry solubility constant Hcp ([2]; reference: Park et al. (1997)): 0.00098 | Henry solubility constant Hcp ([2]; reference: Wasik and Tsang (1970)): 0.0023

FC(Br)C(F)(F)F (centres undefined) [1-bromo-1,2,2,2-tetrafluoroethane]
Henry solubility constant Hcp at 310 K ([1]; reference: Edelist et al. (1964)): 0.00012

COCC(C)O (centres undefined) [1-methoxy-2-propanol]
Henry solubility constant Hcp at 310 K [1, 8]: 4.8

FC(F)OC(F)(F)C(F)Cl (centres undefined) [2-chloro-1,1,2-trifluoroethyl difluoromethyl ether]
Henry solubility constant Hcp at 310 K ([1]; reference: Lerman et al. (1983)): 0.00029

CCOCCO [2-ethoxyethanol]
Henry solubility constant Hcp at 310 K [1, 8]: 8.9

CCOCCOC(C)=O [2-ethoxyethyl ethanoate]
Henry solubility constant Hcp at 310 K [1, 8]: 1.5

COCCO [2-methoxyethanol]
Henry solubility constant Hcp at 310 K [1, 8]: 14

CC1=CCC2C(C1)C2(C)C (centres undefined) [3,7,7-trimethyl-bicyclo[4.1.0]hept-3-ene]
Henry solubility constant Hcp at 310 K ([1]; reference: Falk et al. (1990)): 0.00016

COP(=S)(OC)Oc1ccc([N+](=O)[O-])cc1 [methylparathion]
Henry solubility constant Hcp ([2]; reference: Metcalfe et al. (1980)): 99 | Henry solubility constant Hcp at 293 K ([3]; reference: Rice et al. (1997b)): 260

CCc1cccc(C)c1N(C(=O)CCl)C(C)COC (centres undefined) [metolachlor]
Henry solubility constant Hcp ([2]; reference: Feigenbrugel et al. (2004a)): 210 | Henry solubility constant Hcp ([2]; reference: Lau et al. (1995)): 570 | Henry solubility constant Hcp at 293 K ([3]; reference: Rice et al. (1997b)): 130

c1ccc2ccccc2c1 [naphthalene]
Henry solubility constant Hcp ([2]; reference: Alaee et al. (1996)): 0.023 | Henry solubility constant Hcp [2, 7]: 0.04 | Henry solubility constant Hcp [2, 9]: 0.02 | Henry solubility constant Hcp ([2]; reference: Schwarz and Wasik (1977)): 0.022 | Henry solubility constant Hcp ([2]; reference: Southworth (1979)): 0.018 | Henry solubility constant Hcp ([2]; reference: Webster et al. (1985)): 0.026 | Henry solubility constant Hcp at 293 K [3, 10]: 0.022 | Henry solubility constant Hcp at 293 K [3, 11]: 0.027

CCC(=O)OO[N+](=O)[O-] [peroxypropionyl nitrate]
Henry solubility constant Hcp ([2]; reference: Easterbrook et al. (2023)): 0.016 | Henry solubility constant Hcp at 293 K ([3]; reference: Kames and Schurath (1995)): 0.029

c1ccc2c(c1)ccc1ccccc12 [phenanthrene]
Henry solubility constant Hcp ([2]; reference: Alaee et al. (1996)): 0.21 | Henry solubility constant Hcp ([2]; reference: Bamford et al. (1999b)): 0.16 | Henry solubility constant Hcp [2, 9]: 0.25 | Henry solubility constant Hcp ([2]; reference: Odabasi et al. (2006)): 0.27 | Henry solubility constant Hcp ([2]; reference: Southworth (1979)): 0.18 | Henry solubility constant Hcp at 293 K [3, 10]: 0.34

ClC(Cl)=C(Cl)Cl [tetrachloroethene]
Henry solubility constant Hcp [2, 6]: 0.00062 | Henry solubility constant Hcp ([2]; reference: Chen et al. (2012)): 0.00062 | Henry solubility constant Hcp ([2]; reference: Ervin et al. (1980)): 0.00057 | Henry solubility constant Hcp ([2]; reference: Gossett (1980)): 0.0011 | Henry solubility constant Hcp ([2]; reference: Gossett (1987)): 0.00056 | Henry solubility constant Hcp ([2]; reference: Gossett et al. (1985)): 0.00065 | Henry solubility constant Hcp ([2]; reference: Knauss et al. (2000)): 0.00048 | Henry solubility constant Hcp ([2]; reference: Lincoff and Gossett (1984)): 0.00057 | Henry solubility constant Hcp [2, 12]: 0.00054 | Henry solubility constant Hcp ([2]; reference: Park et al. (1997)): 0.00055 | Henry solubility constant Hcp ([2]; reference: Peng and Wan (1997)): 0.00061 | Henry solubility constant Hcp ([2]; reference: Peng and Wan (1998)): 0.00078 | Henry solubility constant Hcp ([2]; reference: Robbins et al. (1993)): 0.00058 | Henry solubility constant Hcp ([2]; reference: Shimotori and Arnold (2003)): 0.00058 | Henry solubility constant Hcp [2, 13]: 0.00059 | Henry solubility constant Hcp ([2]; reference: Vane and Giroux (2000)): 0.0006 | Henry solubility constant Hcp [2, 14]: 0.00034 | Henry solubility constant Hcp at 293 K [3, 15]: 0.00062 | Henry solubility constant Hcp at 293 K [3, 16]: 0.0005 | Henry solubility constant Hcp at 293 K [3, 11]: 0.00075

ClC(Cl)(Cl)Cl [tetrachloromethane]
Henry solubility constant Hcp ([2]; reference: Balls (1980)): 0.00032 | Henry solubility constant Hcp [2, 6]: 0.00028 | Henry solubility constant Hcp ([2]; reference: Bullister and Wisegarver (1998)): 0.00029 | Henry solubility constant Hcp ([2]; reference: Chen et al. (2012)): 0.0003 | Henry solubility constant Hcp ([2]; reference: Gossett (1987)): 0.00033 | Henry solubility constant Hcp ([2]; reference: Hartkopf and Karger (1973)): 0.00037 | Henry solubility constant Hcp ([2]; reference: Hunter-Smith et al. (1983)): 0.00041 | Henry solubility constant Hcp ([2]; reference: Lutsyk et al. (2005)): 0.00034 | Henry solubility constant Hcp ([2]; reference: Munz and Roberts (1986)): 0.00042 | Henry solubility constant Hcp [2, 12]: 0.00033 | Henry solubility constant Hcp ([2]; reference: Park et al. (1997)): 0.00039 | Henry solubility constant Hcp [2, 13]: 0.00034 | Henry solubility constant Hcp [2, 14]: 0.00033 | Henry solubility constant Hcp at 293 K [3, 15]: 0.0004 | Henry solubility constant Hcp at 293 K [3, 16]: 0.00045 | Henry solubility constant Hcp at 293 K [3, 11]: 0.00043

[134Xe] [xenon-133]
Henry solubility constant Hcp at 310 K ([1]; reference: Ercan (1979)): 3.2e-05
